Assay results reported in patent publication US20140206681A1, “BTK INHIBITORS” (priority 2013, published 2014).

Assays:
[1] = target: T1, BTK enzyme (recombinant full-length BTK, hBTK) (Homo sapiens, UniProt Q06187); test: BTK enzyme activity assay, LANCE TR-FRET; assay type: biochemical; conditions: 50 pM hBTK, 2 μM biotin-A5-peptide, 25 μM ATP; 60 min compound & enzyme incubation; read-out: IC50 BTK activity value
T1 construct: recombinant protein from baculovirus-transfected Sf9 cells: full-length BTK, 6HIS-tag cleaved; 6HIS (cleaved yes); made in house; host or cells: baculovirus-transfected Sf9 cells

HeLa cells = test: [3H]Adenosine uptake functional cellular assay; assay type: cell-based; conditions: Homo sapiens, HeLa, accumulation of [3H]adenosine into HeLa cells; compound range 10 μM to […]; read-out: Adenosine uptake inhibition IC50
Outline: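 Inhibition of adenosine uptake was measured in HeLa cells (ATCC CCL-2) by following accumulation of tritiated adenosine. Cells were kept overnight at 37° C. with 5% (v/v) CO2, then switched to 40 μL HBSS plus 5% (v/v) FBS. 20 μL of 500 nM [3H]adenosine was added, and uptake was counted on a Topcount NXT reader.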

T1 sequence (Q06187 whole entry): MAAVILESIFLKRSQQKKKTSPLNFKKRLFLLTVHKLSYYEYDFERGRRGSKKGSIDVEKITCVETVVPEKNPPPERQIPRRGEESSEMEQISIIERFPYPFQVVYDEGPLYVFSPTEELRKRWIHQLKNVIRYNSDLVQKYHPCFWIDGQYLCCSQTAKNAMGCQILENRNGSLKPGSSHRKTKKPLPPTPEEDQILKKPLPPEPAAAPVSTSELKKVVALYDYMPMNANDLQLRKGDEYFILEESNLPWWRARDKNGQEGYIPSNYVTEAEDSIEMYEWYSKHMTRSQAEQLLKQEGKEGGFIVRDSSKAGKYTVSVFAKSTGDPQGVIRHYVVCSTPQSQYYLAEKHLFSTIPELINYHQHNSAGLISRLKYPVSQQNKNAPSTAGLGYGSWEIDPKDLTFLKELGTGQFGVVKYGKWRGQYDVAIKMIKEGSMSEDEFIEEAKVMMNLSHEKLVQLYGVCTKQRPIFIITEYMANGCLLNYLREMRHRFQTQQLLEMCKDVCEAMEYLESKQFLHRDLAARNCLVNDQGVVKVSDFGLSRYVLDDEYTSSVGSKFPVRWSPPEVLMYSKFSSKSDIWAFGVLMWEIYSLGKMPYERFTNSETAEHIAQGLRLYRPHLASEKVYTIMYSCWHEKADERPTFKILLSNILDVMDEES

IC50 [1] [nM] | IC50 (HeLa cells) [nM] | Compound
0.11 | 51.8 | C[C@H]1OC(=O)N2C[C@H](c3nc(-c4ccc(C(=O)Nc5cc(C(F)(F)F)ccn5)cc4)c4c(N)nccn34)CC[C@@H]12 [Example 49, 4-{8-amino-3-[(1R,6R,8aS)-1-methyl-3-oxohexahydro[1,3]oxazolo[3,4-a]pyridin-6-yl]imidazo[1,5-a]pyrazin-1-yl}-N-[4-(trifluoromethyl)pyridin-2-yl]benzamide]
0.16 | 501 | Nc1ncc(Cl)n2c([C@@H]3CC[C@H]4CCC(=O)N4C3)nc(-c3ccc(C(=O)Nc4cc(C(F)(F)F)ccn4)cc3)c12 [Example 153, 4-{8-amino-5-chloro-3-[(6R,8aS)-3-oxooctahydroindolizin-6-yl]imidazo[1,5-a]pyrazin-1-yl}-N-[4-(trifluoromethyl)pyridin-2-yl]benzamide]
2.3 | 1540 | Nc1ncc(F)n2c([C@@H]3CC[C@H]4CCC(=O)N4C3)nc(-c3ccc(C(=O)Nc4cc(C(F)(F)F)ccn4)cc3O)c12 [Example 165, 4-{8-amino-5-fluoro-3-[(6R,8aS)-3-oxooctahydroindolizin-6-yl]imidazo[1,5-a]pyrazin-1-yl}-3-hydroxy-N-[4-(trifluoromethyl)pyridin-2-yl]benzamide]
49.3 | 6320 | CC(C)(O)c1ccnc(NC(=O)c2ccc(-c3nc([C@@H]4CC[C@H]5CCC(=O)N5C4)n4ccnc(N)c34)cc2)c1 [Example 98, 4-{8-amino-3-[(6R,8aS)-3-oxooctahydroindolizin-6-yl]imidazo[1,5-a]pyrazin-1-yl}-N-[4-(1-hydroxy-1-methylethyl)pyridin-2-yl]benzamide]
0.075 | 64.6 | Nc1nccn2c([C@@H]3CC[C@H]4CCOC(=O)N4C3)nc(-c3ccc(C(=O)Nc4cc(C(F)(F)F)ccn4)cc3)c12 [Example 92, 4-{8-amino-3-[(4aS,7R)-1-oxohexahydro-3H-pyrido[1,2-c][1,3]oxazin-7-yl]imidazo[1,5-a]pyrazin-1-yl}-N-[4-(trifluoromethyl)pyridin-2-yl]benzamide]
278 | 645 | CC(C)c1cc(C(F)(F)F)cc(NC(=O)c2ccc(-c3nc([C@@H]4CC[C@H]5CCC(=O)N5C4)n4ccnc(N)c34)cc2)n1 [Example 125, 4-{8-amino-3-[(6R,8aS)-3-oxooctahydroindolizin-6-yl]imidazo[1,5-a]pyrazin-1-yl}-N-[6-(1-methylethyl)-4-(trifluoromethyl)pyridin-2-yl]benzamide]
2.2 | 517 | Cc1cc(C(=O)Nc2cc(C(F)(F)F)ccn2)cc(F)c1-c1nc([C@@H]2CC[C@H]3CCC(=O)N3C2)n2ccnc(N)c12 [Example 214, 4-{8-amino-3-[(6R,8aS)-3-oxooctahydroindolizin-6-yl]imidazo[1,5-a]pyrazin-1-yl}-3-fluoro-5-methyl-N-[4-(trifluoromethyl)pyridin-2-yl]benzamide]
0.28 | 1600 | COc1cc(C(=O)Nc2cc(C(F)(F)F)ccn2)cc(F)c1-c1nc([C@@H]2CC[C@H]3CCC(=O)N3C2)n2ccnc(N)c12 [Example 134, 4-{8-amino-3-[(6R,8aS)-3-oxooctahydroindolizin-6-yl]imidazo[1,5-a]pyrazin-1-yl}-3-fluoro-5-methoxy-N-[4-(trifluoromethyl)pyridin-2-yl]benzamide]
2.7 | 3690 | COc1cc(C(=O)Nc2cc(C(F)(F)F)n(C)n2)ccc1-c1nc([C@@H]2CC[C@H]3CCC(=O)N3C2)n2ccnc(N)c12 [Example 188, 4-{8-amino-3-[(6R,8aS)-3-oxooctahydroindolizin-6-yl]imidazo[1,5-a]pyrazin-1-yl}-3-methoxy-N-[1-methyl-5-(trifluoromethyl)-1H-pyrazol-3-yl]benzamide]
0.4 | 1520 | COc1cc(C(=O)Nc2cc(C(F)(F)F)ccn2)cc(F)c1-c1nc([C@@H]2CC[C@H]3CCC(=O)N3C2)n2c(F)cnc(N)c12 [Example 220, 4-{8-amino-5-fluoro-3-[(6R,8aS)-3-oxooctahydroindolizin-6-yl]imidazo[1,5-a]pyrazin-1-yl}-3-fluoro-5-methoxy-N-[4-(trifluoromethyl)pyridin-2-yl]benzamide]
0.27 | 1160 | CCOc1cc(C(=O)Nc2cc(C(F)(F)F)ccn2)ccc1-c1nc([C@@H]2CC[C@H]3CCC(=O)N3C2)n2c(Cl)cnc(N)c12 [Example 128, 4-{8-amino-5-chloro-3-[(6R,8aS)-3-oxooctahydroindolizin-6-yl]imidazo[1,5-a]pyrazin-1-yl}-3-ethoxy-N-[4-(trifluoromethyl)pyridin-2-yl]benzamide]
1.2 | 303 | Nc1nccn2c([C@@H]3CC[C@H]4CCC(=O)N4C3)nc(-c3ccc(C(=O)Nc4cc(C(F)(F)F)cnn4)cc3)c12 [Example 104, 4-{8-amino-3-[(6R,8aS)-3-oxooctahydroindolizin-6-yl]imidazo[1,5-a]pyrazin-1-yl}-N-[5-(trifluoromethyl)pyridazin-3-yl]benzamide]
4.8 | 117 | Cc1cc(C(F)(F)F)cc(NC(=O)c2ccc(-c3nc([C@@H]4CC[C@H]5CCC(=O)N5C4)n4ccnc(N)c34)cc2)n1 [Example 120, 4-{8-amino-3-[(6R,8aS)-3-oxooctahydroindolizin-6-yl]imidazo[1,5-a]pyrazin-1-yl}-N-[6-methyl-4-(trifluoromethyl)pyridin-2-yl]benzamide]
0.46 | 132 | N#C/N=C1\CC[C@@H]2CC[C@@H](c3nc(-c4ccc(C(=O)Nc5cc(C(F)(F)F)ccn5)cc4)c4c(N)nccn34)CN12 [Example 78, 4-(8-amino-3-((6R,8aS,E)-3-(cyanoimino)octahydroindolizin-6-yl)imidazo[1,5-a]pyrazin-1-yl)-N-(4-(trifluoromethyl)pyridin-2-yl)benzamide]
0.11 | 4.13 | Nc1nccn2c([C@@H]3CC[C@H]4CCC(=O)N4C3)nc(-c3ccc(C(=O)Nc4cc(C(F)(F)F)ccn4)cc3F)c12 [Example 23, 4-{8-amino-3-[(6R,8aS)-3-oxooctahydroindolizin-6-yl]imidazo[1,5-a]pyrazin-1-yl}-3-fluoro-N-[4-(trifluoromethyl)pyridin-2-yl]benzamide]
0.26 | 45.1 | CN1CC(=O)N2C[C@H](c3nc(-c4ccc(C(=O)Nc5cc(C(F)(F)F)ccn5)cc4)c4c(N)nccn34)CC[C@H]2C1 [Example 50, 4-{8-amino-3-[(7R,9aS)-2-methyl-4-oxooctahydro-2H-pyrido[1,2-a]pyrazin-7-yl]imidazo[1,5-a]pyrazin-1-yl}-N-[4-(trifluoromethyl)pyridin-2-yl]benzamide]
1.9 | 994 | Cn1nc(NC(=O)c2ccc(-c3nc([C@@H]4CC[C@H]5CCC(=O)N5C4)n4c(Cl)cnc(N)c34)c(Cl)c2)cc1C(F)(F)F [Example 191, 4-{8-amino-5-chloro-3-[(6R,8aS)-3-oxooctahydroindolizin-6-yl]imidazo[1,5-a]pyrazin-1-yl}-3-chloro-N-[1-methyl-5-(trifluoromethyl)-1H-pyrazol-3-yl]benzamide]
1.3 | 318 | Nc1ncc(F)n2c([C@@H]3CC[C@H]4CCC(=O)N4C3)nc(-c3ccc(C(=O)Nc4cc(C5CC5)ccn4)cc3F)c12 [Example 167, 4-{8-amino-5-fluoro-3-[(6R,8aS)-3-oxooctahydroindolizin-6-yl]imidazo[1,5-a]pyrazin-1-yl}-N-(4-cyclopropylpyridin-2-yl)-3-fluorobenzamide]
7.8 | 199 | Cc1cc(C(=O)Nc2cc(C(F)(F)F)ccn2)c(F)cc1-c1nc([C@@H]2CC[C@H]3CCC(=O)N3C2)n2c(Cl)cnc(N)c12 [Example 197, 4-(8-amino-5-chloro-3-((6R,8aS)-3-oxooctahydroindolizin-6-yl)imidazo[1,5-a]pyrazin-1-yl)-2-fluoro-5-methyl-N-(4-(trifluoromethyl)pyridin-2-yl)benzamide]
0.67 | 1690 | CCOc1cc(C(=O)Nc2cc(C(F)(F)F)n(C)n2)c(F)cc1-c1nc([C@@H]2CC[C@H]3CCC(=O)N3C2)n2c(Cl)cnc(N)c12 [Example 115, 4-(8-amino-5-chloro-3-((6R,8aS)-3-oxooctahydroindolizin-6-yl)imidazo[1,5-a]pyrazin-1-yl)-5-ethoxy-2-fluoro-N-(1-methyl-5-(trifluoromethyl)-1H-pyrazol-3-yl)benzamide]
0.45 | 67 | Nc1nccn2c([C@@H]3CC[C@H]4CCC(=O)N4C3)nc(-c3ccc(C(=O)Nc4cc(C(F)(F)F)ccn4)c(F)c3)c12 [Example 24, 4-{8-amino-3-[(6R,8aS)-3-oxooctahydroindolizin-6-yl]imidazo[1,5-a]pyrazin-1-yl}-2-fluoro-N-[4-(trifluoromethyl)pyridin-2-yl]benzamide]
0.45 | 2070 | CCOc1cc(C(=O)Nc2ncc(C)s2)ccc1-c1nc([C@@H]2CC[C@H]3CCC(=O)N3C2)n2c(Cl)cnc(N)c12 [Example 158, 4-{8-amino-5-chloro-3-[(6R,8aS)-3-oxooctahydroindolizin-6-yl]imidazo[1,5-a]pyrazin-1-yl}-3-ethoxy-N-(5-methyl-1,3-thiazol-2-yl)benzamide]
0.19 | 78.1 | COC(=O)CN1CC(=O)N2C[C@H](c3nc(-c4ccc(C(=O)Nc5cc(C(F)(F)F)ccn5)cc4)c4c(N)nccn34)CC[C@H]2C1 [Example 82]
1.4 | 1080 | Nc1nccn2c([C@@H]3CC[C@H]4CCC(=O)N4C3)nc(-c3ccc(C(=O)Nc4cc(C5CC5)ccn4)cc3OC3CC3)c12 [Example 148, 4-{8-amino-3-[(6R,8aS)-3-oxooctahydroindolizin-6-yl]imidazo[1,5-a]pyrazin-1-yl}-3-(cyclopropyloxy)-N-(4-cyclopropylpyridin-2-yl)benzamide]
